{
  "source": "patent US20090131528A1",
  "about": "“SALT” (priority 2006, published 2009)",
  "key": {"[1]": {"experiment": "Stability test towards water, water content on storage", "type": "physicochemical", "conditions": "open container and sealed ampoule, four weeks at 40° C. and 75% relative humidity", "from_the_text": "(§1) The exceptional stability of the nitrate salt of aliskiren towards water may also be shown in stability tests."}, "[2]": {"experiment": "1-Week Chemical Stability Test, total impurities by HPLC-UV 230 nm", "type": "physicochemical", "from_the_text": "as §1"}, "[3]": {"experiment": "Dynamic vapour sorption (DVS-1), isothermal water absorption or loss", "type": "physicochemical", "conditions": "for Change in Mass (%) Desorption / Change in Mass (%) Sorption: 25° C., 2 hours after equilibration", "from_the_text": "A clear characterisation of this property is achieved by means of isothermal measurements over predetermined time intervals and predetermined relative humidity using dynamic vapour sorption (DVS-1 from the company Surface Measurement Systems LTD, Marlow, Buckinghamshire, UK). […] The measurement error of this sorption method based on thermogravimetry is about 0.1%."}, "physchem": {"experiment": "physchem", "from_the_text": "The active ingredient aliskiren is the free base which is described specifically in EP 678503 A and it has one basic group, the amino group in position 5. […] Accordingly, one acidic group can bind to the nitrogen lone pairs of the amino group."}, "[4]": {"experiment": "Hygroscopicity, general statement", "type": "physicochemical"}},
  "note": "Counter-ions that a name gives are not always drawn.",
  "data": [
    {"smiles": "COCCCOc1cc(C[C@@H](C[C@H](N)[C@@H](O)C[C@H](C(=O)NCC(C)(C)C(N)=O)C(C)C)C(C)C)ccc1OC", "note": "[nitrate salt of aliskiren]", "values": [
      {"measurement": "water content", "setting": "[1]", "value": "remains constant"},
      {"measurement": "Total Impurities (HPLC-UV, 230 nm), %", "setting": "[2]; 1 week, 50 C. sealed, listed as Nitrate", "value": 1.0, "unit": "%"},
      {"measurement": "Total Impurities (HPLC-UV, 230 nm), %", "setting": "[2]; 1 week, 50 C./75% RH, listed as Nitrate", "value": 1.0, "unit": "%"},
      {"measurement": "Total Impurities (HPLC-UV, 230 nm), %", "setting": "[2]; 1 week, 80 C. sealed, listed as Nitrate", "value": 1.0, "unit": "%"},
      {"measurement": "Total Impurities (HPLC-UV, 230 nm), %", "setting": "[2]; 1 week, 80 C./75% RH, listed as Nitrate", "value": 1.1, "unit": "%"},
      {"measurement": "water absorption or loss", "setting": "[3]; DVS conditions employed, measurement error about 0.1%", "value": "no measurable water absorption or loss"},
      {"measurement": "hygroscopicity", "setting": "[3]; DVS, up to 95% RH", "value": "non-hygroscopic"},
      {"measurement": "moisture uptake", "setting": "[3]; at 95% RH", "value": 0.3, "unit": "%"},
      {"measurement": "Change in Mass (%) Desorption", "setting": "[3]; relative humidity 0%", "value": "−0.0060", "unit": "%"},
      {"measurement": "Change in Mass (%) Sorption", "setting": "[3]; relative humidity 0%, 39.4 mg sample", "value": 0.0001, "unit": "%"},
      {"measurement": "Change in Mass (%) Desorption", "setting": "[3]; relative humidity 25%", "value": 0.0326, "unit": "%"},
      {"measurement": "Change in Mass (%) Sorption", "setting": "[3]; relative humidity 25%", "value": 0.0269, "unit": "%"},
      {"measurement": "Change in Mass (%) Desorption", "setting": "[3]; relative humidity 50%", "value": 0.0842, "unit": "%"},
      {"measurement": "Change in Mass (%) Sorption", "setting": "[3]; relative humidity 50%", "value": 0.0821, "unit": "%"},
      {"measurement": "Change in Mass (%) Desorption", "setting": "[3]; relative humidity 75%", "value": 0.1495, "unit": "%"},
      {"measurement": "Change in Mass (%) Sorption", "setting": "[3]; relative humidity 75%", "value": 0.1425, "unit": "%"},
      {"measurement": "Change in Mass (%) Desorption", "setting": "[3]; relative humidity 85%", "value": 0.1938, "unit": "%"},
      {"measurement": "Change in Mass (%) Sorption", "setting": "[3]; relative humidity 85%", "value": 0.1864, "unit": "%"},
      {"measurement": "Change in Mass (%) Desorption", "setting": "[3]; relative humidity 95%", "value": 0.3091, "unit": "%"},
      {"measurement": "Change in Mass (%) Sorption", "setting": "[3]; relative humidity 95%", "value": 0.3091, "unit": "%"}
    ]},
    {"smiles": "COCCCOc1cc(C[C@@H](C[C@H](N)[C@@H](O)C[C@H](C(=O)NCC(C)(C)C(N)=O)C(C)C)C(C)C)ccc1OC", "note": "[aliskiren, 2(S),4(S),5(S),7(S)—N-(3-amino-2,2-dimethyl-3-oxopropyl)-2,7-di(1-methylethyl)-4-hydroxy-5-amino-8-[4-methoxy-3-(3-methoxy-propoxy)phenyl]-octanamide]", "values": [
      {"measurement": "pKa", "setting": "physchem", "value": 9.79},
      {"measurement": "hygroscopicity", "setting": "[4]", "value": "highly hygroscopic"}
    ]},
    {"smiles": "COCCCOc1cc(C[C@@H](C[C@H](N)[C@@H](O)C[C@H](C(=O)NCC(C)(C)C(N)=O)C(C)C)C(C)C)ccc1OC", "note": "[HemiFumarate]", "values": [
      {"measurement": "Total Impurities (HPLC-UV, 230 nm), %", "setting": "[2]; 1 week, 50 C. sealed", "value": 1.1, "unit": "%"},
      {"measurement": "Total Impurities (HPLC-UV, 230 nm), %", "setting": "[2]; 1 week, 50 C./75% RH", "value": 9.3, "unit": "%"},
      {"measurement": "Total Impurities (HPLC-UV, 230 nm), %", "setting": "[2]; 1 week, 80 C. sealed", "value": 18.1, "unit": "%"},
      {"measurement": "Total Impurities (HPLC-UV, 230 nm), %", "setting": "[2]; 1 week, 80 C./75% RH", "value": 64.3, "unit": "%"},
      {"measurement": "Total Impurities (HPLC-UV, 230 nm), %", "setting": "[2]; Unstressed", "value": 1.1, "unit": "%"}
    ]}
  ]
}
